# Source: patent US20160264523A1, “CONJUGATE COMPRISING FOLIC ACID AND INDOLE-3-CARBINOL FOR MEDICAL USE” (Dom Terry International S.R.L., priority 2013, published 2016)
# Assays:
# [1] = ABTS cationic free radical discoloration assay (antioxidant activity); design: key: TEAC: mM Trolox equivalent to 1 mM tested compound; conditions: TEAC = concentration of Trolox having the same antioxidant ability of the tested compound at 1 mM
# Description: The cationic free radical ABTS+° discoloration assay assesses the scavenging ability of an antioxidant against a preformed cationic radical (ABTS^+°) compared to Trolox, a hydrosoluble analogue of Vitamin E.
# [2] = test system: collagen-induced platelet aggregation; assay: Platelet antiaggregating activity on platelet-enriched plasma; type: cell-based
# Experimental: The platelet anti-aggregating effect induced by a series of mediators was tested on platelet-enriched plasma samples.
# [3] = test system: HT-29 (human colon adenocarcinoma); assay: Cytotoxic activity, cell growth inhibition; type: cell-based; conditions: HT-29 cells; n=4; read-out: IC50, concentration that inhibits the 50% cell growth compared to control cultures
# Experimental: (§1) The studies of cytotoxic activity were carried out on three human cell lines: HT-29 (human colon adenocarcinoma), MCF-7 (human breast adenocarcinoma), and KB-3-1 (human oropharyngeal carcinoma), which cells are characterized by an overexpression of folic acid (FR+) receptors. […], conjugates free from folic acid (PEG-[…]), and the folate conjugates F-PEG-I3C, F-PEG-AD-(I3C)2, and F-PEG-βGlu-(I3C)2 were tested.
# [4] = test system: MCF-7 (human breast adenocarcinoma); assay: Cytotoxic activity, cell growth inhibition; type: cell-based; conditions: MCF-7 cells; n=4; read-out: IC50, concentration that inhibits the 50% cell growth compared to control cultures
# Experimental: as §1
# [5] = test system: KB-3-1 (human oropharyngeal carcinoma); assay: Cytotoxic activity, cell growth inhibition; type: cell-based; conditions: KB-3-1 cells (FR+); n=4; read-out: IC50, concentration that inhibits the 50% cell growth compared to control cultures
# Experimental: as §1
# [6] = test system: tumor cells that are positive to the estrogen receptor; conditions: a number of in vitro and in vivo studies (background); cited from earlier work
# [7] = test system: inducible nitric oxide synthetase (iNos) activity in J774A.1 macrophage cells stimulated by LPS; assay: Anti-inflammatory activity: production of nitrites and release of NO; type: cell-based; conditions: 24 h, J774A.1 macrophages stimulated with LPS of E. coli, n=5
# Experimental: I3C, conjugate derivatives free from folic acid (PEG-I3C), and folate conjugates F-PEG-I3C, F-PEG-AD-(I3C)2, and F-PEG-βGlu-(I3C)2 were tested for their anti-inflammatory activity against the inducible nitric oxide synthetase (iNos) activity in J774A.1 macrophage cells stimulated by LPS and assessing the production of nitrites and the release of NO.
# The PEG-I3C conjugates, free from folic acid, show a lower activity, thus indicating a real targeting effect of the folic acid molecule on the activated macrophage cells. […] The data are expressed as the inhibition percentage±s.e.m. vs the production of nitrites during 24 h by J774A.1 macrophage cells treated with LPS alone.
molecule,measurement,setting,value
O=c1cc(-c2ccc(O)c(O)c2)oc2cc(O)cc(O)c12 [Luteolin],ABTS assay (TEAC),[1],2.8 ± 0.09
"OCc1c[nH]c2ccccc12 [Compound I3C, Indole-3-carbinol]",platelet aggregation inhibition,[2]; 3 μM,70%
same,platelet aggregation inhibition,[2]; 6 μM,73%
same,platelet aggregation inhibition,[2]; 12 μM,78%
same,platelet aggregation inhibition,[2]; 25 μM,79%
same,IC50,[3],45.1 ± 1.7 µM
same,IC50,[4],30 ± 0.7 µM
same,IC50,[5],93 ± 2.1 µM
same,inhibition of the development of tumor cells positive to the estrogen receptor,[6],up to 90%
same,Nitrites release inhibition (% vs LPS),[7]; 1 μg/mL,10.0 ± 1.1%
same,Nitrites release inhibition (% vs LPS),[7]; 10 μg/mL,20.0 ± 0.9 %
same,Nitrites release inhibition (% vs LPS),[7]; 100 μg/mL,70.1 ± 1.2 %
same,ABTS assay (TEAC),[1],3.8 ± 0.12
C[C@@H]1O[C@@H](O[C@@H]2[C@@H](O)[C@H](OCCc3ccc(O)c(O)c3)O[C@H](CO)[C@H]2OC(=O)/C=C/c2ccc(O)c(O)c2)[C@H](O)[C@H](O)[C@H]1O [Verbascoside],ABTS assay (TEAC),[1],5.3 ± 0.22
PEG550-Indole-3-Carbinol [PEG550-I3C],Nitrites release inhibition (% vs LPS),[7]; 1 μg/mL,12.5 ± 0.8%
same,Nitrites release inhibition (% vs LPS),[7]; 10 μg/mL,34.1 ± 1.2 %
same,Nitrites release inhibition (% vs LPS),[7]; 100 μg/mL,72.5 ± 2.4 %
same,ABTS assay (TEAC),[1],4.2 ± 0.26
O=C1C[C@@H](c2ccc(O)cc2)Oc2cc(O)cc(O)c21 [Naringenin],ABTS assay (TEAC),[1],1.4 ± 0.03
COc1ccc([C@@H]2CC(=O)c3c(O)cc(O[C@@H]4O[C@H](CO[C@@H]5O[C@@H](C)[C@H](O)[C@@H](O)[C@H]5O)[C@@H](O)[C@H](O)[C@H]4O)cc3O2)cc1O [Hesperidin],ABTS assay (TEAC),[1],0.5 ± 0.09
C[C@@H]1O[C@@H](O[C@H]2[C@H](Oc3cc(O)c4c(c3)O[C@H](c3ccc(O)cc3)CC4=O)O[C@H](CO)[C@@H](O)[C@@H]2O)[C@H](O)[C@H](O)[C@H]1O [Naringin],ABTS assay (TEAC),[1],0.5 ± 0.01
Indole-3-Carbinol-PEG600-Indole-3-Carbinol [I3C-PEG600-I3C],Nitrites release inhibition (% vs LPS),[7]; 1 μg/mL,32.2 ± 1.4 %
same,Nitrites release inhibition (% vs LPS),[7]; 10 μg/mL,45.7 ± 1.7 %
same,Nitrites release inhibition (% vs LPS),[7]; 100 μg/mL,84.3 ± 3.8 %
same,ABTS assay (TEAC),[1],5.8 ± 0.41
O=C(O)/C=C/c1ccc(O)c(O)c1 [Caffeic acid],ABTS assay (TEAC),[1],5.8 ± 0.12
"O=C(O)c1ccc(O)c(O)c1 [3,4-Dihydroxybenzoic acid]",ABTS assay (TEAC),[1],4.6 ± 0.18
Tocopherol,ABTS assay (TEAC),[1],2.1 ± 0.07
O=c1cc(-c2ccc(O)cc2)oc2cc(O)cc(O)c12 [Apigenin],ABTS assay (TEAC),[1],0.2 ± 0.01
